Laboratory results as given in US20170216426A1, “COMPOSITIONS AND METHODS FOR TRANSIENT IMMUNE RESPONSE MODULATION DURING VACCINATION” (priority 2014, published 2017).
Entries after “also recorded” stand apart in the source; their conditions may differ.

Tests used:
immature/T1 B cells = test: AID mRNA expression in cultured immature/T1 B cells (quantitative RT-PCR); assay type: cell-based, mice
Procedure: Twenty-four hours after culture, B cells were harvested in TRIzol-LS reagent for AID mRNA quantification.
Expression of AID mRNA was determined by a quantitative RT-PCR^1. Briefly, sorted immature/T1 and mature follicular B cells were lysed in TRIzol LS before and after cultures. Total RNA was prepared from these cells using standard phenol/chloroform extraction method, and then cDNA was prepared using SuperScript III reverse transcriptase (Invitrogen) with oligo(dT)20 primers (Invitrogen). One-twentieth volume of cDNA samples were amplified in a primary PCR using Ramp-Taq DNA polymerase (Denville Scientific) with AID118 and AID119 primers^14. Primary PCR condition: initial incubation of 95° C. for 7 min followed by 15 cycles of amplification steps (95° C. for 30 s, 58° C. for 20 sec, and 72° C. for 45 sec.). Primary PCR products were then subjected to quantitative PCR using SYBR Green core reagents and AIDF2/AIDR2 primers^5.

2F5 dKI mice [1] = test: Spleen B-cell numbers and GC responses in 2F5 dKI mice after chloroquine, MPER liposome immunization and anti-CD25 Ab (FIG. 20); assay type: in vivo
2F5 dKI mice [2] = conditions: 2F5 dKI mice treated with chloroquine for one week
3H9 mice [3] = test: DNA avidity index of single immature/T1 B-cell N-cultures from treated 3H9 mice (ELISA); assay type: in vivo
Procedure: Single immature/T1 B cells and MF B cells from unimmunized B6 and Myd88^−/− mice, and control- and chloroquine-treated 3H9 mice were expanded in the presence of NB-21.2D9 feeder cells (N-cultures). Briefly, single immature/T1 B cells and MF B cells were directly sorted into each well of 96-well plates and cultured in the presence of exogenous recombinant IL-4 (2 ng/ml, Peprotech) and CD154-/BAFF-/IL-21-expressing NB-21.2D9 cells in RPMI 1640 (Invitrogen) supplemented with 10% HyClone FBS (Thermo scientific), 2-mercaptoethanol (5.5×10^−5 M), penicillin (100 units/ml), streptomycin (100 μg/ml), HEPES (10 mM), sodiumpyruvate (1 mM), and MEM nonessential amino acid (1×; all Invitrogen). Two thirds of culture media were replaced with fresh media daily from day 2 to day 8. On days 9-10, culture supernatants were harvested for ELISA determinations.
Concentrations of total IgG in culture supernatants were determined by standard ELISA. Briefly, 96-well ELISA plates (Corning) were coated with anti-mouse Igκ Ab and anti-mouse Igλ Ab (2 μg/ml each; Southern Biotech) in carbonate buffer for overnight. After washing, plates were blocked with PBS containing 0.5% BSA for 1 h. Diluted samples (at 1:100 and 1:1,000 dilutions in PBS containing 0.5% BSA and 0.1% Tween-20) and serially diluted standard anti-DNA mAb (HYB331-01; Abcam) were then applied to the plates and incubated for overnight. After washing, HRP-conjugated anti-mouse IgG (Southern Biotech) was added to the plates and incubated for 2 h. The HRP-activity was visualized with TMB substrate reagents (Biolegend) and OD450-OD620 was measured by spectrophotometer (Bio-Rad).
Anti-DNA IgG was measured by ELISA^19. […] Bound IgG was detected by HRP-conjugated anti-mouse IgG and TMB substrates as described above. […]
DNA avidity index, [anti-DNA IgG]/[total IgG], represents proportion of DNA-binding IgG to total IgG in reference to the anti-DNA mAb. To compare DNA avidity indices of individual immature/T1 B cells from control- and chloroquine-treated 3H9 mice, culture supernatant samples that contain total IgG (range: 1-3 μg/ml) were analyzed. […]

[4] = Humoral responses after chloroquine treatment (FIG. 17); assay type: in vivo
3H9 mice [5] = test system: 3H9 mice
Excerpt: Specific B-lineage developmental compartments were identified as described^1: CD43^+ B (pre-pro-B and pro-B; B220^lowCD93^+IgM^−IgD^−CD43^+), large pre-B (B220^lowCD93^+IgM^− IgD^−CD43^−FSC^high), small pre-B (B220^lowCD93^+IgM^−IgD^−CD43^−FSC^low), immature/T1 B (B220^lowCD93^+IgM^+IgD^+/−CD21^−CD23^−) and mature B (B220^hiCD93^−) cells in bone marrow, and splenic MF B (B220^hiCD93^−IgM^intIgD^hiCD21^intCD23^hi) cells of naïve mice, and germinal center B (GL-7^+B220^highFas^+IgD^−) cells in spleen of NP-CGG/alum immunized mice. Specific developmental compartments were designated for B6, and then identical gatings were used for all samples. Cells that take up propidium iodide were excluded from our analyses. Labeled cells were analyzed/sorted in a FACS Canto (BD Bioscience) or FACS Vantage with DIVA option (BD Bioscience). Flow cytometric data were analyzed with FlowJo software (Treestar Inc.).

[6] = test system: human CD40 expressing HEK blue cells; test: HEK-Blue CD40L cells SEAP reporter assay of CD40L bioactivity; assay type: cell-based; conditions: liposome-conjugated vs non-conjugated
Excerpt: HEK-Blue CD40L cells (Invivogen) were used to measure the bioactivity of CD40L through the secretion of embryonic alkaline phosphatase (SEAP) upon NF-κB activation following CD40 stimulation.

[7] = chloroquine-treated vs control 3H9 mice

Molecule: CCN(CC)CCCC(C)Nc1ccnc2cc(Cl)ccc12 (stereo not shown) [chloroquine]
- AID expression in immature/T1 B cells elevated by CpG or CpG+anti-μ stimulation (immature/T1 B cells; in the presence of 2.0 μg/ml of chloroquine, 24 h culture): abrogated
- synergistic AID up-regulation (immature/T1 B cells; in vitro): blocked
- absolute cell numbers of splenic transitional-1 (T1) and T2 (2F5 dKI mice [1]; consecutive injections with chloroquine and MPER liposome, 14 days after last chloroquine injection, 12 days after immunization): increased
- tolerizing deletion of 2F5 dKI B cells (2F5 dKI mice [1]; injections of chloroquine): release
- GC responses (2F5 dKI mice [1]; vs controls (PBS+control IgG), after MPER liposome immunization): abolished
- splenic mature B-cell compartments (2F5 dKI mice [2]): increases
- frequency of immature/T1 B cells with higher DNA avidity (3H9 mice [3]; DNA avidity index 0.178 cut-off (average of control 3H9), chloroquine-treated 3H9 mice): increased
- average anti-DNA avidity indices of individual immature/T1 B cells (3H9 mice [3]; [7]): significantly higher; also recorded: more avidly
- distribution of anti-DNA avidity indices (3H9 mice [3]; [7]): shifted toward higher avidity cohorts
- duration of suppression of humoral responses [4]: < 1 week
- numbers of large- and small pre-B cells (3H9 mice [5]; 3H9 mice, multiple i.p. injections of chloroquine for up to 8 days, bone marrow): decreased
- central B-cell tolerance (3H9 mice [5]; mice treated with chloroquine): relaxed

Molecule: CCCCO [n-butanol]
- AID expression in immature/T1 B cells stimulated with CpG (immature/T1 B cells; addition of n-butanol (0.1, 0.3, 1.0%)): did not significantly change
- synergistic effects of CpG and anti-μ co-stimulation on AID expression in immature/T1 B cells (immature/T1 B cells; n-butanol at 1.0%): completely abrogated
- synergistic effects of CpG and anti-μ co-stimulation on AID expression in immature/T1 B cells (immature/T1 B cells; n-butanol, dose-dependent): suppressed

B1: CD40L: CD40 ligand conjugated to liposomes (protein, UniProt P29965 113-261, looked up)
CD40 ligand, soluble form: MQKGDQNPQIAAHVISEASSKTTSVLQWAEKGYYTMSNNLVTLENGKQLTVKRQGLYYIYAQVTFCSNREASSQAPFIASLCLKSPGRFERILLRAANTHSSAKPCGQQSIHLGGVFELQPGASVFVNVTDPSQVSHGTGFTSFGLLKL
modifications: conjugated to liposomes
- effect of liposome conjugation on CD40 activation [6]: enhances
